Reference: patent US7390806B2, “Antibiotics containing borinic acid complexes and methods of use” (Anacor Pharmaceuticals, Inc., priority 2002, dated 2008)
≈ marks a conversion by molar mass, not a printed value.

Experiments:
S. aureus ATCC 29213 = assay: MIC determination, S. aureus ATCC 29213; assay type: cell-based, Staphylococcus aureus; conditions: for MIC S. aureus ATCC 29213: Table 1; for MIC: Staphylococcus aureus, ATCC29213, Table 1, read-out: MIC S. aureus ATCC 29213
[1] = system: S. epidermidis ATCC 12228; assay: MIC determination, S. epidermidis ATCC 12228; assay type: cell-based, Staphylococcus epidermidis; conditions: for MIC S. epidermidis ATCC 12228: Table 1; for MIC: Staphylococcus epidermidis, ATCC12228, Table 1, read-out: MIC S. epidermidis ATCC 12228
S. pneumoniae ATCC 6301 = assay: MIC determination, S. pneumoniae ATCC 6301; assay type: cell-based, Streptococcus pneumoniae; conditions: for MIC S. pneumoniae ATCC 6301: Table 1; for MIC: Streptococcus pneumoniae, ATCC6301, Table 1, read-out: MIC S. pneumoniae ATCC 6301
E. faecalis ATCC 29212 = assay: MIC determination, E. faecalis ATCC 29212; assay type: cell-based, Enterococcus faecalis; conditions: for MIC E. faecalis ATCC 29212: Table 1; for MIC: Enterococcus faecalis, ATCC29212, Table 1, read-out: MIC E. faecalis ATCC 29212
E. faecium CT-26 = assay: MIC determination, E. faecium CT-26; assay type: cell-based, Enterococcus faecium; conditions: for MIC E. faecium CT-26: Table 1; for MIC: Enterococcus faecium, CT26, Table 1, read-out: MIC E. faecium CT-26
[2] = system: M. catarrhalis ATCC 25238; assay: MIC determination, M. catarrhalis ATCC 25238; assay type: cell-based; conditions: for MIC M. catarrhalis ATCC 25238: Table 1; for MIC: Moraxella catarrhalis, ATCC25238, Table 1, read-out: MIC M. catarrhalis ATCC 25238

Row | SMILES | MIC S. aureus ATCC 29213 (S. aureus ATCC 29213) [micrograms per ml] | MIC S. epidermidis ATCC 12228 [1] [micrograms per ml] | MIC S. pneumoniae ATCC 6301 (S. pneumoniae ATCC 6301) [micrograms per ml] | MIC E. faecalis ATCC 29212 (E. faecalis ATCC 29212) [micrograms per ml] | MIC E. faecium CT-26 (E. faecium CT-26) [micrograms per ml] | MIC M. catarrhalis ATCC 25238 [2] [micrograms per ml] | MIC (S. aureus ATCC 29213) [µg/mL] | MIC [1] [µg/mL] | MIC (S. pneumoniae ATCC 6301) [µg/mL] | MIC (E. faecalis ATCC 29212) [µg/mL] | MIC (E. faecium CT-26) [µg/mL] | MIC [2] [µg/mL]
1 | Oc1cccc2cccnc12 [Compound 33, 8-hydroxyquinoline] | 1 | 1 | 1 | 8 | 2 | 2 | – | – | – | – | – | –
2 | Oc1cccc2cccnc12 [Compound 73, 8-hydroxyquinoline] | 2 | 1 | 2 | 64 | 8 | 0.25 | – | – | – | – | – | –
3 | Oc1cccc2cccnc12 [Compound 92, 8-hydroxyquinoline] | 2 | 1 | 2 | 8 | 4 | 1 | – | – | – | – | – | –
4 | Oc1c(Br)cc(Br)c2cccnc12 [Compound 24] | – | – | – | – | – | – | 0.5 (≈ 1.65 µM) | 8 (≈ 26.4 µM) | 8 (≈ 26.4 µM) | 64 (≈ 211 µM) | 32 (≈ 106 µM) | 0.12 (≈ 0.396 µM)
5 | Oc1cccc2cccnc12 [Compound 86, 8-hydroxyquinoline] | 2 | 1 | 2 | 8 | 4 | 2 | – | – | – | – | – | –
6 | Oc1cccc2cccnc12 [Compound 18, 8-hydroxyquinoline] | 0.25 | 1 | 2 | 8 | 4 | 1 | – | – | – | – | – | –
7 | Oc1cccc2cccnc12 [Compound 98, 8-hydroxyquinoline] | 2 | 1 | 1 | 8 | 4 | 1 | – | – | – | – | – | –
8 | Oc1ccc(F)c2cccnc12 [Compound 64] | 2 | 2 | 4 | 8 | 8 | 1 | – | – | – | – | – | –
9 | Oc1cccc2cccnc12 [Compound 59, 8-hydroxyquinoline] | 2 | 1 | 1 | 8 | 4 | 2 | – | – | – | – | – | –
10 | Oc1cccc2cccnc12 [Compound 39, 8-hydroxyquinoline] | 1 | 1 | 1 | 8 | 2 | 2 | – | – | – | – | – | –
11 | Oc1cccc2cccnc12 [Compound 79, 8-hydroxyquinoline] | 2 | 2 | 2 | 8 | 4 | 2 | – | – | – | – | – | –
12 | Oc1cccc2cccnc12 [Compound 83, 8-hydroxyquinoline] | 2 | 1 | 2 | 4 | 4 | 2 | – | – | – | – | – | –
13 | Oc1cccc2cccnc12 [Compound 88, 8-hydroxyquinoline] | 2 | 2 | 2 | 8 | 2 | 2 | – | – | – | – | – | –
14 | Oc1cccc2cccnc12 [Compound 89, 8-hydroxyquinoline] | 2 | 1 | 1 | 8 | 2 | 2 | – | – | – | – | – | –
15 | Oc1cccc2cccnc12 [Compound 61, 8-hydroxyquinoline] | 2 | 1 | 1 | 16 | 2 | 2 | – | – | – | – | – | –
16 | N#Cc1ccc(O)c2ncccc12 [Compound 21, 5-cyano-8-hydroxyquinoline] | – | – | – | – | – | – | 0.5 (≈ 2.94 µM) | 4 (≈ 23.5 µM) | 2 (≈ 11.8 µM) | 16 (≈ 94 µM) | 8 (≈ 47 µM) | 0.25 (≈ 1.47 µM)
17 | Oc1ccc(Cl)c2cccnc12 [Compound 49] | 2 | 1 | 1 | 16 | 2 | 0.25 | – | – | – | – | – | –
18 | Oc1cccc2cccnc12 [Compound 78, 8-hydroxyquinoline] | 2 | 1 | 1 | 8 | 2 | 2 | – | – | – | – | – | –
19 | Oc1cccc2cccnc12 [Compound 87, 8-hydroxyquinoline] | 2 | 1 | 2 | 8 | 4 | 1 | – | – | – | – | – | –
20 | Oc1cccc2cccnc12 [Compound 91, 8-hydroxyquinoline] | 2 | 1 | 2 | 8 | 2 | 1 | – | – | – | – | – | –
